Reference: paper PMC10769034, “Aromatic oil from lavender as an atopic dermatitis suppressant” (PLOS ONE, 2024)
Several values for one entry are separate records, joined by “and”; a condition that tells them apart may be missing. Equal values may be shown once. Read-outs that look alike come from different tables or passages of the source.

Key:
ARE-NLuc::HaCaT [1] = test system: ARE-NLuc::HaCaT
ARE-NLuc::HaCaT [2] = test system: ARE-NLuc::HaCaT; remark: listed apart in the source
AhR [3] = test: XRE reporter assay for AD evaluation (AD cell model); conditions: for inhibitory effect in the AD cell model, compared in words: 0.5 μM FICZ, XRE-NLuc::HaCaT, not as strong as linalyl acetate; for inhibitory effect in the AD cell model, compared in words / IC50: 24 h; for IC50: Homo sapiens, read-out: IC50 of inhibition of AD (XRE reporter expression)
ARE-NLuc::HaCaT [4] = test: Cell viability (WST-1) in the keratinocyte activation assay; conditions: 48 h, mean ± SD of three experiments
ARE-NLuc::HaCaT [5] = test: Keratinocyte activation assay (ARE reporter assay, OECD TG442D); conditions: 48 h; positive criteria of TG442D
Artemin = test: FICZ-induced Artemin mRNA expression by qPCR in HaCaT cells; assay type: cell-based; conditions: Homo sapiens, 24 h, read-out: IC50 of decrease of FICZ-induced Artemin expression
AhR [6] = test: AhR mRNA level by qPCR in HaCaT cells; assay type: cell-based, human; conditions: FICZ with or without linalyl acetate or linalool, 24 h
CD86 on U937 cells [7] = test system: CD86 on U937 cells; design: method as in PMID 23576290; conditions: cited from earlier work
[8] = cited from earlier work
CD86 on U937 cells [9] = conditions: for CD86+ FL1 positivity (%): 200 µg/mL, control printed for each of three test series
[10] = Cell viability (PI staining) in the dendritic cell activation assay; conditions: human, U937 cells, %Viability, control printed for each of three test series
U937 cells [11] = test: as above; conditions: 200 µg/mL, control printed for each of three test series
AhR [12] = test: AhR protein level by western blotting in HaCaT cells; assay type: cell-based, human; conditions: FICZ and linalyl acetate, 24 h
Procedure: Sodium dodecyl sulfate–polyacrylamide gel electrophoresis (SDS–PAGE) and western blotting were performed as described previously. Cell lysates were prepared in lysis buffer [10 mM HEPES-KOH, pH 7.4, 100 mM KCl, 1 mM MgCl2, 1% Triton X-100, and protease inhibitor cocktails (Nacalai)]. After incubation for 10 min on ice, the lysate was clarified by centrifugation at 14,000 × g for 10 min. The supernatants were then subjected to SDS–PAGE on a 7.5% gel (Bio-Rad). The gel was electrotransferred to polyvinylidene fluoride or polyvinylidene difluoride membranes (pore size: 0.45 μm, Merck Group Japan, Tokyo, Japan). The proteins on the membrane were detected by incubation with diluted anti-AhR, anti-ARNT (Santa Cruz Biotechnology, Cosmo Bio Co., LTD, Tokyo, Japan), and anti-γ-tubulin (Sigma, Sigma-Aldrich Japan, Tokyo, Japan) followed by HRP-conjugated anti-mouse immunoglobulin G (Cell Signaling, CST Japan, Tokyo, Japan) using a charge-coupled device camera.
Next, we measured the mRNA and protein expression of AhR and ARNT by qPCR and western blotting, respectively.
Total RNA was then extracted and reverse transcribed to cDNA that was subjected to qPCR using the primer set listed in S2 Table in S1 File. […] Fold induction was calculated as the vehicle set at 1. […] The right-side numbers are experimental numbers. d) Band intensity of each lane was quantified by ImageJ and normalized to […]. […]

HaCaT cells = test: RNAseq on treated HaCaT cells analysed by DisGeNET-Metascape; assay type: cell-based, human; conditions: authors' reply to reviewer, data not shown
Description: Thank you for your comment. […] To clarify that our conclusion is limited, we have added some words in the revised Discussion section.

U937 cells [13] = conditions: human
[14] = cited from earlier work; remark: listed apart in the source
ARNT [15] = test: ARNT protein level by western blotting in HaCaT cells; assay type: cell-based, human; conditions: FICZ alone, 24 h
Description: All the Western blots are shown from two (anti-ARNT) or three (anti-AhR and anti-gamma tubulin) independent experiments. […] The intensities are relative to the vehicle set at 1.

ARNT [16] = test: ARNT mRNA level by qPCR in HaCaT cells; assay type: cell-based, human; conditions: FICZ with or without linalyl acetate or linalool, 24 h
Description: Briefly, the total RNA was extracted, and reverse transcribed using SuperPrep II Cell Lysis & RT Kit for qPCR (#SCQ-401, Toyobo, Tokyo, Japan), according to the manufacturer’s instructions. The cDNA obtained was subjected to a quantitative polymerase chain reaction (qPCR) with THUNDERBIRD Next SYBR qPCR Mix (#QPX-201, Toyobo) according to the manufacturer’s protocol using the StepOne Real-Time PCR System (Thermo Fisher Japan, Tokyo, Japan). The expression of each gene obtained using qPCR was normalized to that of glyceraldehyde-3-phosphate dehydrogenase (GAPDH). […] The cycle threshold (Ct) value of GAPDH in each sample was used as an internal control.
Total RNA was then extracted and reverse transcribed to cDNA that was subjected to qPCR using the primer set listed in S2 Table in S1 File. AhR and ARNT expression was normalized to GAPDH expression. Fold induction was calculated as the vehicle set at 1. Values in the graphs represent the mean ± SD of two independent experiments. […] All the Western blots are shown from two (anti-ARNT) or three (anti-AhR and anti-gamma tubulin) independent experiments. […] The intensities are relative to the vehicle set at 1.

C=CC(C)(O)CCCC(C)C (centres unmarked) [DHL, 6,7-Dihydrolinalool]
outcome of the keratinocyte activation assay (ARE-NLuc::HaCaT [1]): weakly positive | CV70 (ARE-NLuc::HaCaT [2]): 1319 ± 52.3 µM | inhibitory effect in the AD cell model, compared in words (AhR [3]): stronger inhibitory effects than linalool

CCC(C)(O)CCCC(C)C (centres unmarked) [THL, tetrahydrolinalool]
outcome of the keratinocyte activation assay (ARE-NLuc::HaCaT [1]): weakly positive | CV70 (ARE-NLuc::HaCaT [2]): 1416 ± 90.6 µM | inhibitory effect in the AD cell model, compared in words (AhR [3]): stronger inhibitory effects than linalool

C=C(C)C(=O)OCCOC(=O)C(=C)C [Ethylene glycol dimethacrylate, ethylene glycol dimethacrylate, reference compound]
CV70 (ARE-NLuc::HaCaT [4]): 523 ± 59.0 µM | CV70 (ARE-NLuc::HaCaT [4]; listed as EGDMA): 523 ± 59.0 µM | outcome of the keratinocyte activation assay (ARE-NLuc::HaCaT [5]): positive

C=CC(C)(O)CCC=C(C)C (centres unmarked) [Linalool]
IC50 (Artemin; 5 μM FICZ, qPCR normalized to GAPDH): 194 µM | AhR mRNA level (AhR [6]): did not change | outcome of the dendritic cell activation assay (CD86 on U937 cells [7]): positive | Patch test (human) [8]: 0.2% positive ^##, ^### | IC50 (AhR [3]): > 1000 µM | CV70 (ARE-NLuc::HaCaT [4]): >2000 µM | outcome of the keratinocyte activation assay (ARE-NLuc::HaCaT [5]): negative

CC(O)C(=O)O (centres unmarked) [lactic acid]
CD86+ FL1 positivity (%) (CD86 on U937 cells [9]; Experiment 1, 48 h): 11.5% and 10.1% | CD86+ FL1 positivity (%) (CD86 on U937 cells [9]; Experiment 2, 48 h): 8.4% and 12.6% and 11.7% | viability at 48 h, 200 µg/mL ([10]; Experiment 1, 48 h): 97.4% | viability at 48 h, 200 µg/mL ([10]; Experiment 2, 48 h): 96.4% | %Viability (U937 cells [11]; Experiment 1, 48 h): 96.2% | %Viability (U937 cells [11]; Experiment 2, 48 h): 95.4% and 94.4%

C=CC(C)(CCC=C(C)C)OC(C)=O (centres unmarked) [Linalyl acetate]
IC50 (Artemin): 3.6 µM | reduction of AhR protein level compared with FICZ alone (AhR [12]): approximately 30% | AhR mRNA level (AhR [6]): did not change | evidence of contact allergy in RNAseq (HaCaT cells): no evidence of contact allergy | S.I. value of CD86 (CD86 on U937 cells [9]): less than 150 | outcome of the dendritic cell activation assay (CD86 on U937 cells [9]): negative | CV70 (U937 cells [13]): 16 ± 3.8 µg/mL | Key event 4, Local lymph node assay [14]: weak positivity | patch test [8]: negativity | IC50 (AhR [3]): 519 µM | XRE reporter expression (AhR [3]; without activation of AhR by FICZ): decreased XRE reporter expression | CV70 (ARE-NLuc::HaCaT [4]): 1466 ± 45.4 µM | outcome of the keratinocyte activation assay (ARE-NLuc::HaCaT [5]): weakly positive

O=Cc1c2[nH]c3ccccc3c2cc2[nH]c3ccccc3c12 [FICZ, 6-formylindolo[3,2-b]carbazole]
ARNT protein level (ARNT [15]): increased | AhR mRNA level (AhR [6]): did not change | ARNT mRNA level (ARNT [16]): did not change
